Reference: patent publication US20220118070A1, “CANCER THERAPY BY MODIFYING NEOANTIGEN EXPRESSION” (priority 2019, published 2022)
“Also recorded” adds a separate entry of the source.

How the values were obtained:
Mantle Cell Lymphoma = conditions: in vitro and in vivo models of Mantle Cell Lymphoma; cited from earlier work
[1] = tested on: interaction of snRNA with E2F1; assay: Anti-E2F1 RNA immunoprecipitation (RIP), co-immunoprecipitating snRNA by qRT-PCR; type: cell-based; conditions: 5 μM PRMT5 inhibitor; U2OS, HCT116 and MCF7 cells; FIGS. 3B, E and F
Experimental: B) U2OS cells were treated with 5 μM PRMT5 inhibitor (P5 inh) as indicated, prior to performing an anti-E2F1 RIP. Co-immunoprecipitating U6 (i) and U4 (ii) snRNAs were identified with specific primers by qRT-PCR. Input protein levels were determined by immunoblot (iii). n=3
E) HCT116 cells were treated with 5 μM PRMT5 inhibitor (P5 inh) where indicated, prior to performing an anti-E2F1 RIP. Co-immunoprecipitated U1 (i) and U6 (ii) snRNA were detected by qRT-PCR.
F) As above, though the experiment was performed in MCF7 cells.
A) U2OS cells (i) and HCT116 cells (ii) were transfected for 96 h with 25 nM non-targeting (siNT) or p100/TSN specific siRNA, prior to lysis in RIP buffer. Cell extracts were immunoprecipitated with E2F1 antibody and co-immunoprecipitating RNA was reverse transcribed prior to QPCR analysis with primers against U5 (i) and U6 (ii) snRNAs as indicated. Input protein levels were determined by immunoblot.
RNA was isolated from cells using TRIzol (Thermo Fisher) according to the manufacturer's instructions. 1 μg of total RNA was used for cDNA synthesis. For standard mRNA analysis oligo(d)T20 (Invitrogen) was added. […] Results were expressed as average (mean) fold change compared to control treatments using the ΔΔCt method from three biological repeat samples. […]

[2] = tested on: chromatin-associated SUMOylation on the p73 promoter; assay: ChIP with anti-SUMO2/3 antibody on the p73 promoter; type: cell-based; conditions: 5 μM, 72 h; U2OS cells; FIG. 6A
Experimental: A) U2OS cells were treated with 5 μM PRMT5 inhibitor (P5 inh) for 72 h where indicated, prior to ChIP analysis with anti-SUMO2/3 specific or control antibodies. Immunoprecipitated chromatin was analysed using primers specific for the E2F site in the p73 promoter (i). An RT-PCR was also performed to monitor the levels of p73 transcripts in the cell (ii). […] See also FIGS. 10F and 10G. ChIP was performed as described previously [(29) or (30)]. Antibodies used for immunoprecipitation were as follows: anti-E2F1 (C-20), anti-HA (16B12), anti-HP1α (NB110-40623, Novus Biologicals; RRID: AB_714949), anti-SUMO2/3 (8A2; Abcam; RRID: AB_1658424), non-specific rabbit or mouse IgG. The recovered DNA was analysed in triplicate by real-time QPCR as described (30, 31) on a MX3005P QPCR system using Brilliant III SYBR Green QPCR Master Mix according to the manufacturer's instructions. Results were expressed as average (mean) fold change compared to IgG control treatments using the ΔΔCt method from triplicate biological repeat samples. Alternatively, a standard curve was generated to calculate ChIP/input signals that were subsequently used to generate fold change values compared to IgG control. Error bars represent standard error unless otherwise indicated.

p73 transcripts = assay: RT-PCR of p73 transcripts in treated cells; type: cell-based; conditions: 5 μM; U2OS and HCT116 cells; FIG. 6A, FIGS. 10F and G
Experimental: A) U2OS cells were treated with 5 μM PRMT5 inhibitor (P5 inh) for 72 h where indicated, prior to ChIP analysis with anti-SUMO2/3 specific or control antibodies. Immunoprecipitated chromatin was analysed using primers specific for the E2F site in the p73 promoter (i). An RT-PCR was also performed to monitor the levels of p73 transcripts in the cell (ii). […] See also FIGS. 10F and 10G. F) U2OS cells were treated with 5 μM PRMT5 inhibitor (P5 inh) as indicated, prior to RNA extraction and qRT-PCR analysis with primers recognising total p73 or CDC6 transcripts as indicated (i). […] 1 μg of total RNA was used for cDNA synthesis. For standard mRNA analysis oligo(d)T20 (Invitrogen) was added. For splice variant analysis, RNA was DNAse treated (Sigma-Aldrich) prior to cDNA synthesis using random hexamers (Invitrogen). M-MLV reverse transcriptase (Promega) was used as per the manufacturer's instructions. qRT-PCR was carried out in triplicate using the indicated primer pairs and Brilliant III SYBR Green QPCR Master Mix (Stratagene) on an MX3005P (Agilent) QPCR instrument. Results were expressed as average (mean) fold change compared to control treatments using the ΔΔCt method from three biological repeat samples. GAPDH or actin primer sets were used as an internal calibrator. Error bars represent standard error unless otherwise indicated.

SENP7 RNA variants = assay: qRT-PCR of SENP7 transcript variants in treated cells; type: cell-based; conditions: 5 μM, 72 h; U2OS and HCT116 cells; FIGS. 4D and 4E
Experimental: D) U2OS cells were treated for 72 h with 5 μM PRMT5 inhibitor (P5 inh). RNA was then isolated from cells and analysed by qRT-PCR using primers targeting specific SENP7 transcript variants or total SENP7 RNA. […] E) As above, though the experiment was performed in HCT116 cells. n=4 RNA was isolated from cells using TRIzol (Thermo Fisher) according to the manufacturer's instructions. 1 μg of total RNA was used for cDNA synthesis. For standard mRNA analysis oligo(d)T20 (Invitrogen) was added. For splice variant analysis, RNA was DNAse treated (Sigma-Aldrich) prior to cDNA synthesis using random hexamers (Invitrogen). M-MLV reverse transcriptase (Promega) was used as per the manufacturer's instructions. qRT-PCR was carried out in triplicate using the indicated primer pairs and Brilliant III SYBR Green QPCR Master Mix (Stratagene) on an MX3005P (Agilent) QPCR instrument. Results were expressed as average (mean) fold change compared to control treatments using the ΔΔCt method from three biological repeat samples. GAPDH or actin primer sets were used as an internal calibrator. Error bars represent standard error unless otherwise indicated.

[3] = tested on: interaction between E2F1 and SENP7 V5 RNA; assay: Anti-E2F1 RIP, co-immunoprecipitating SENP7 V5 transcripts by qRT-PCR; type: cell-based; conditions: 5 μM; HCT116 cells; FIG. 4C
Experimental: C) HCT116 cells were treated with 5 μM PRMT5 inhibitor (P5 inh) where indicated prior to performing an anti-E2F1 RIP. Co-immunoprecipitating SENP7 V5 transcripts were analysed by qRT-PCR.
RNA was isolated from cells using TRIzol (Thermo Fisher) according to the manufacturer's instructions. 1 μg of total RNA was used for cDNA synthesis. For standard mRNA analysis oligo(d)T20 (Invitrogen) was added. For splice variant analysis, RNA was DNAse treated (Sigma-Aldrich) prior to cDNA synthesis using random hexamers (Invitrogen). M-MLV reverse transcriptase (Promega) was used as per the manufacturer's instructions. qRT-PCR was carried out in triplicate using the indicated primer pairs and Brilliant III SYBR Green QPCR Master Mix (Stratagene) on an MX3005P (Agilent) QPCR instrument. Results were expressed as average (mean) fold change compared to control treatments using the ΔΔCt method from three biological repeat samples. GAPDH or actin primer sets were used as an internal calibrator. Error bars represent standard error unless otherwise indicated.
Cells were washed once with PBS before UV cross-linking at 900 mJ/cm^2 using a Stratalinker (Stratagene). RIP lysis buffer (50 mM Tris-HCl pH 8.0, 150 mM NaCl, 1 mM MgCl2, 10% glycerol [v/v], 1% NP-40 [v/v], 1 mM DTT, 0.2 mM sodium orthovanadate and protease inhibitor cocktails) was added directly to the plate, on ice. […]

PRMT5 = PRMT5 (Homo sapiens, UniProt O14744); conditions: cited from earlier work
Chain of PRMT5 (O14744 whole entry): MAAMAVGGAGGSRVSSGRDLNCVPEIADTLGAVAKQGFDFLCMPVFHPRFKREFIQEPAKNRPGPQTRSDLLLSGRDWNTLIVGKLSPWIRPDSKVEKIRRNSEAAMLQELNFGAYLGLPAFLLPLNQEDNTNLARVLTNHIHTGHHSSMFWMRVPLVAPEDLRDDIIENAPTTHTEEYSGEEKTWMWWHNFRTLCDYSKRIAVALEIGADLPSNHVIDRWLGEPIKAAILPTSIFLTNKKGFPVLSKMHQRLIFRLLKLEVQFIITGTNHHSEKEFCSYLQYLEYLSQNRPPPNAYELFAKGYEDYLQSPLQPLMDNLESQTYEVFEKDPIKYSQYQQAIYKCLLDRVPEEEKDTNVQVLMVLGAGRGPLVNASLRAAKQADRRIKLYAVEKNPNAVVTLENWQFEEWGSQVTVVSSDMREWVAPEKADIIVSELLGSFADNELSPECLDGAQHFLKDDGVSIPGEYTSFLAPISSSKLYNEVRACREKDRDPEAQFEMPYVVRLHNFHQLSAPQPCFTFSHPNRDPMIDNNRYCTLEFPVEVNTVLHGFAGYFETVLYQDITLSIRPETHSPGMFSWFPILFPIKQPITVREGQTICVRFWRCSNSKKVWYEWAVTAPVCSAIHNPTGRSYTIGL
Chain of PRMT5 (Q9BQA1 whole entry partner): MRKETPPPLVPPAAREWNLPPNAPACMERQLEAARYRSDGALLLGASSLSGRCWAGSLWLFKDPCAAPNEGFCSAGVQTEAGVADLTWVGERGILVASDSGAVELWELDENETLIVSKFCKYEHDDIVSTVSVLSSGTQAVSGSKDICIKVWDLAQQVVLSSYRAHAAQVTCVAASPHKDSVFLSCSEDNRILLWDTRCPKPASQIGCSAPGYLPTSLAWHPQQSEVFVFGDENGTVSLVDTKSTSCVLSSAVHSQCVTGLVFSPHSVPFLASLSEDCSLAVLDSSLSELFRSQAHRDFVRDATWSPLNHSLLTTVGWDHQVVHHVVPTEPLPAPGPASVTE

[4] = tested on: chromatin-associated HP1a; assay: ChIP with anti-HP1a antibody on the p73 promoter; type: cell-based; conditions: PRMT5 inhibitor 24 h or 48 h; U2OS cells; FIG. 6B
Experimental: B) As above, though cells were treated with the PRMT5 inhibitor (P5 inh) for 24 h or 48 h as indicated. ChIP analysis was performed with anti-HP1a specific or control antibodies (i).
C) U2OS cells were transfected with SENP7 siRNA or non-targeting siRNA (siNT) for 96 h as indicated. Cells were then prepared for ChIP analysis as above (i).
ChIP was performed as described previously [(29) or (30)]. Antibodies used for immunoprecipitation were as follows: anti-E2F1 (C-20), anti-HA (16B12), anti-HP1α (NB110-40623, Novus Biologicals; RRID: AB_714949), anti-SUMO2/3 (8A2; Abcam; RRID: AB_1658424), non-specific rabbit or mouse IgG. The recovered DNA was analysed in triplicate by real-time QPCR as described (30, 31) on a MX3005P QPCR system using Brilliant III SYBR Green QPCR Master Mix according to the manufacturer's instructions. Results were expressed as average (mean) fold change compared to IgG control treatments using the ΔΔCt method from triplicate biological repeat samples. Alternatively, a standard curve was generated to calculate ChIP/input signals that were subsequently used to generate fold change values compared to IgG control. Error bars represent standard error unless otherwise indicated.

## O=C(NC[C@H](O)CN1CCc2ccccc2C1)c1cc(NC2COC2)ncn1 [EPZ015666]
Mantle Cell Lymphoma
  antiproliferative effects: antiproliferative effects
[1]
  interaction of snRNA with E2F1: absent
[2]
  chromatin-associated SUMOylation on the p73 promoter: increase
p73 transcripts
  levels of transcription (p73): reduced levels
SENP7 RNA variants
  level of the SENP7 V5 RNA variant: lower level; also recorded: down-regulates
  level of the other SENP7 RNA variants: increased
[3]
  interaction between E2F1 and V5 RNA: reduced
PRMT5
  inhibition of PRMT5: potent and selective inhibitor
[4]
  association of HP1a with chromatin (p73 promoter): increased association
